Results published in BindingDB's records for doi:10.1021/cb200305u (Harvard Medical School, 2012).

Tests used:
Assay in all cases: In Vitro Kinase Assay
Aurora kinase C = target: T1, Aurora kinase C (Homo sapiens, UniProt Q9UQB9)
T1 sequence (Q9UQB9 whole entry): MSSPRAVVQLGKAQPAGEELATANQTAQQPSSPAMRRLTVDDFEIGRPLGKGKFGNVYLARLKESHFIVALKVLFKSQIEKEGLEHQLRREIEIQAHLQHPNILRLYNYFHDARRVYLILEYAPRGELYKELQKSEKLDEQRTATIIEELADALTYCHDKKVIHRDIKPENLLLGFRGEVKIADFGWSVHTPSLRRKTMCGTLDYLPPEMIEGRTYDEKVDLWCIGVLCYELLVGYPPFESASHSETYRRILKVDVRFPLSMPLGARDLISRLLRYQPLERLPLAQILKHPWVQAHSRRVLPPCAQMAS
From the text: (§1) In vitro kinase assay of Aurora A, B, and C using Z-LYTE technology (Invitrogen) and ATP at Km apparent for each kinase.

Aurora kinase B = Aurora kinase B (Homo sapiens, UniProt Q96GD4)
Sequence of Aurora kinase B (Q96GD4 whole entry): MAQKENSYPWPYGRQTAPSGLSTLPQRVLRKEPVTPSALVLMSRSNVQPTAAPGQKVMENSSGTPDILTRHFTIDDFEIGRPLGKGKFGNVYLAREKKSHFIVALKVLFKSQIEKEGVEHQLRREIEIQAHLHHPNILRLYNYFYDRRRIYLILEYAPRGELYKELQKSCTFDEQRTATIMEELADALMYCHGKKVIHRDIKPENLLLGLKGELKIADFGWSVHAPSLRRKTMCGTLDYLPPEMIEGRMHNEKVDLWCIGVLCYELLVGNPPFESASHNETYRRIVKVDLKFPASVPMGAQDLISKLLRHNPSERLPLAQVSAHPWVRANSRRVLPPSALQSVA
From the text: as §1

Aurora kinase A = target: T2, Aurora kinase A (Homo sapiens, UniProt O14965)
T2 sequence (O14965 whole entry): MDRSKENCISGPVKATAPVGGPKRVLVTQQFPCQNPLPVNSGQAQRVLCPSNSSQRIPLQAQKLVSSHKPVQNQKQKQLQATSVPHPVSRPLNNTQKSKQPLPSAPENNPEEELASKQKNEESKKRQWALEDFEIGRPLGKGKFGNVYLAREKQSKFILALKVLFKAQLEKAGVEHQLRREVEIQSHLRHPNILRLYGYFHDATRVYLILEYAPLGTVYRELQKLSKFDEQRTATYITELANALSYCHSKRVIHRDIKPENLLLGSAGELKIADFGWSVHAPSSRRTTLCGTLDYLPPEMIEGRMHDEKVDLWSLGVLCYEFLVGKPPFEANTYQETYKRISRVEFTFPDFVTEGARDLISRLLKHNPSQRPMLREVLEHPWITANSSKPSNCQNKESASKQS
From the text: as §1

Row | IC50 (Aurora kinase C) [µM] | IC50 (Aurora kinase B) [µM] | IC50 (Aurora kinase A) [µM] | Structure (SMILES)
1 | 0.0253 | – | – | CCN(CCCOc1ccc2c(Nc3cc(CC(=O)Nc4cccc(F)c4)n[nH]3)ncnc2c1)CCOP(=O)(O)O
2 | – | 0.0084 | 0.0034 | CN1C(=O)c2ccccc2N(C)c2nc(Nc3ccc(S(N)(=O)=O)cc3)ncc21
3 | 0.0246 | – | 0.0056 | CN1C(=O)c2ccccc2N(C)c2nc(Nc3ccc(N4CCC(O)CC4)cc3)ncc21 [Benzo[e]pyrimido[5,4-b][1,4]diazepin-6(11H)-one, 1]
4 | 0.0405 | 0.0259 | 0.0072 | CN1CCN(c2ccc(Nc3ncc4c(n3)N(C)c3ccccc3C(=O)N4C)cc2)CC1 [Benzo[e]pyrimido[5,4-b][1,4]diazepin-6(11H)-one, 3]
5 | – | 0.0286 | 0.0088 | CN1C(=O)c2ccccc2N(C)c2nc(Nc3ccc(S(=O)(=O)N4CCC(O)CC4)cc3)ncc21 [Benzo[e]pyrimido[5,4-b][1,4]diazepin-6(11H)-one, 4]
6 | – | 0.0451 | 0.0168 | CC1CCN(S(=O)(=O)c2ccc(Nc3ncc4c(n3)N(C)c3ccccc3C(=O)N4C)cc2)CC1 [Benzo[e]pyrimido[5,4-b][1,4]diazepin-6(11H)-one, 5]
7 | – | 0.0152 | 0.0059 | CCN1CCN(C(=O)c2ccc(Nc3ncc4c(n3)N(C)c3ccccc3C(=O)N4C)cc2)CC1 [Benzo[e]pyrimido[5,4-b][1,4]diazepin-6(11H)-one, 7]
8 | – | 0.0393 | 0.0184 | CN1C(=O)c2ccccc2N(C)c2nc(Nc3ccc(OCc4ccccn4)cc3)ncc21 [Benzo[e]pyrimido[5,4-b][1,4]diazepin-6(11H)-one, 9]
9 | – | 0.512 | 0.323 | CN1C(=O)c2ccccc2N(C)c2nc(Nc3ccc(OCc4cccc(F)c4)cc3)ncc21 [Benzo[e]pyrimido[5,4-b][1,4]diazepin-6(11H)-one, 10]
10 | – | 0.352 | 0.0839 | CN1C(=O)c2ccccc2N(C)c2nc(Nc3ccc(OCc4cccc(Cl)c4)cc3)ncc21 [Benzo[e]pyrimido[5,4-b][1,4]diazepin-6(11H)-one, 11]
11 | – | 0.0848 | 0.009 | CN1CCN(C(=O)c2ccc(Nc3ncc4c(n3)N(C)c3ccccc3C(=O)N4C)cc2C(F)(F)F)CC1 [Benzo[e]pyrimido[5,4-b][1,4]diazepin-6(11H)-one, 12]
12 | – | 0.774 | 0.0868 | CN1CCN(c2ccc(Nc3ncc4c(n3)N(C)c3ccccc3C(=O)N4C)cc2C(F)(F)F)CC1 [Benzo[e]pyrimido[5,4-b][1,4]diazepin-6(11H)-one, 13]
13 | – | 0.417 | 0.0532 | CN1C(=O)c2ccccc2N(C)c2nc(Nc3ccc(OCc4ccccn4)c(Cl)c3)ncc21 [Benzo[e]pyrimido[5,4-b][1,4]diazepin-6(11H)-one, 14]
14 | – | 0.0367 | 0.0149 | CN1CCN(C(=O)c2cccc(Nc3ncc4c(n3)N(C)c3ccccc3C(=O)N4C)c2)CC1 [Benzo[e]pyrimido[5,4-b][1,4]diazepin-6(11H)-one, 15]
15 | – | 0.0198 | 0.0107 | CN1CCN(Cc2cccc(Nc3ncc4c(n3)N(C)c3ccccc3C(=O)N4C)c2)CC1 [Benzo[e]pyrimido[5,4-b][1,4]diazepin-6(11H)-one, 16]
16 | – | 0.0558 | 0.0119 | CN1CCN(c2cccc(Nc3ncc4c(n3)N(C)c3ccccc3C(=O)N4C)c2)CC1 [Benzo[e]pyrimido[5,4-b][1,4]diazepin-6(11H)-one, 17]
17 | – | 0.216 | 0.0985 | CN1c2ccccc2C(=O)Nc2cnc(Nc3ccc(N4CCC(O)CC4)cc3)nc21 [Benzo[e]pyrimido[5,4-b][1,4]diazepin-6(11H)-one, 18]
18 | – | 0.0437 | 0.0051 | CN1C(=O)c2ccccc2N(C)c2nc(Nc3ccc(C(=O)N4CCC(O)CC4)c(C(F)(F)F)c3)ncc21 [Benzo[e]pyrimido[5,4-b][1,4]diazepin-6(11H)-one, 19]
19 | – | 0.0143 | 0.0032 | CN1C(=O)c2ccccc2N(C)c2nc(Nc3ccc(C(=O)N4CCC(O)CC4)c(Cl)c3)ncc21 [Benzo[e]pyrimido[5,4-b][1,4]diazepin-6(11H)-one, 20]
20 | – | 0.0145 | 0.0037 | Cc1cc(Nc2ncc3c(n2)N(C)c2ccccc2C(=O)N3C)ccc1C(=O)N1CCN(C)CC1 [Benzo[e]pyrimido[5,4-b][1,4]diazepin-6(11H)-one, 21]
21 | – | 0.0242 | 0.0026 | COc1cc(Nc2ncc3c(n2)N(C)c2ccccc2C(=O)N3C)ccc1C(=O)N1CCN(O)CC1 [Benzo[e]pyrimido[5,4-b][1,4]diazepin-6(11H)-one, 22]
22 | – | 0.132 | 0.0116 | CCN1CCN(Cc2ccc(Nc3ncc4c(n3)N(C)c3c(C)cccc3C(=O)N4C)cc2C(F)(F)F)CC1 [Benzo[e]pyrimido[5,4-b][1,4]diazepin-6(11H)-one, 28]
23 | 0.595 | 0.487 | 0.0134 | CCN1CCN(Cc2ccc(Nc3ncc4c(n3)N(C)c3c(F)cccc3C(=O)N4C)cc2C(F)(F)F)CC1 [Benzo[e]pyrimido[5,4-b][1,4]diazepin-6(11H)-one, 29]
24 | – | 0.23 | 0.146 | CCN1CCN(Cc2ccc(Nc3ncc4c(n3)N(C)c3cc(C)ccc3C(=O)N4C)cc2C(F)(F)F)CC1 [Benzo[e]pyrimido[5,4-b][1,4]diazepin-6(11H)-one, 30]
25 | – | 0.586 | 0.298 | CCN1CCN(Cc2ccc(Nc3ncc4c(n3)N(C)c3cc(F)ccc3C(=O)N4C)cc2C(F)(F)F)CC1 [Benzo[e]pyrimido[5,4-b][1,4]diazepin-6(11H)-one, 31]

Row | Structure (SMILES) | IC50 (Aurora kinase C) [µM] | IC50 (Aurora kinase B) [µM] | IC50 (Aurora kinase A) [µM]
26 | CCN1CCN(C(=O)Cc2ccc(Nc3ncc(F)c(Nc4ccc(C(=O)Nc5ccccc5Cl)cc4)n3)cc2)CC1 [Aurora Inhibitor, 35] | 0.432 | 1.38 | 0.0032
27 | CCN1CCN(C(=O)Cc2ccc(Nc3ncc4c(n3)N(C)c3ccccc3C(=O)N4C)cc2)CC1 [Benzo[e]pyrimido[5,4-b][1,4]diazepin-6(11H)-one, 8] | – | 0.0187 | 0.0061
